Source: patent publication US4401604A, “Process for preparing thiosulfenamide derivatives of N-phosphonomethylglycine triesters” (Monsanto Company, priority 1981, dated 1983)

Experiments:
Format in all cases: in vivo
[1] = tested on: Morningglory; assay: Post-emergence herbicidal activity, greenhouse; details: Table I, 4 WAT
From the text: (§1) A good grade of top soil is placed in aluminum pans having holes in the bottom and compacted to a depth of 0.95 to 1.27 cm. from the top of the pan. A predetermined number of seeds of each of several dicotyledonous and monocotyledonous annual plant species and/or vegetative propagules for the perennial plant species are placed on the soil and pressed into the soil surface. The seeds and/or vegetative propagules are covered with soil and leveled. The pans are then placed on a sand bench in the greenhouse and watered from below as needed. After the plants reach the desired age (two to three weeks), each pan except for the control pans is removed individually to a spraying chamber and sprayed by means of an atomizer operating at a positive air pressure of approximately 1.46 kg/cm^2 absolute. The atomizer contains 6 ml. of a solution or suspension of the chemical. In that 6 ml., is an amount of a cyclohexanone emulsifying agent mixture to give a spray solution or suspension which contains about 0.4% by weight of the emulsifier. The spray solution or suspension contains a sufficient amount of the candidate chemical in order to give application rates corresponding to those set forth in the tables. The spray solution is prepared by taking an aliquot of a 1.0% by weight stock solution or suspension of the candidate chemical in an organic solvent such as acetone or tetrahydrofuran or in water. The emulsifying agent employed is a mixture comprising 35 weight percent butylamine dodecylbenzene sulfonate and 65 weight percent of a tall oil ethylene oxide condensate having about 11 moles of ethylene oxide per mole of tall oil. The pans are returned to the greenhouse and watered as before and the injury to the plants as compared to the control is observed at approximately two and four weeks as indicated in the tables under WAT and the results recorded. In some instances, the two-week observations are omitted.
(§2) The post-emergence herbicidal activity index used in Table I is as follows:
(§3) The plant species utilized in these tests are identified by letter in accordance with the following legend: […]

[2] = tested on: Smartweed; assay: Post-emergence herbicidal activity, greenhouse; details: Table I, 4 WAT
From the text: as §1, §2, §3

[3] = tested on: Johnsongrass; assay: Post-emergence herbicidal activity, greenhouse; details: Table I, 4 WAT
From the text: as §1, §2, §3

[4] = tested on: Downy Brome; assay: Post-emergence herbicidal activity, greenhouse; details: Table I, 4 WAT
From the text: as §1, §2, §3

[5] = tested on: Cocklebur; assay: Post-emergence herbicidal activity, greenhouse; details: Table I, 4 WAT
From the text: as §1, §2, §3

[6] = tested on: Barnyardgrass; assay: Post-emergence herbicidal activity, greenhouse; details: Table I, 4 WAT
From the text: as §1, §2, §3

[7] = tested on: Lambsquarters; assay: Post-emergence herbicidal activity, greenhouse; details: Table I, 4 WAT
From the text: as §1, §2, §3

[8] = tested on: Quackgrass; assay: Post-emergence herbicidal activity, greenhouse; details: Table I, 4 WAT
From the text: as §1, §2, §3

[9] = tested on: Velvetleaf; assay: Post-emergence herbicidal activity, greenhouse; details: Table I, 4 WAT
From the text: as §1, §2, §3

[10] = tested on: Yellow Nutsedge; assay: Post-emergence herbicidal activity, greenhouse; details: Table I, 4 WAT
From the text: as §1, §2, §3

[11] = tested on: Canada Thistle; assay: Post-emergence herbicidal activity, greenhouse; details: Table I, 4 WAT
From the text: as §1, §2, §3

[12] = tested on: Morningglory; assay: Pre-emergent herbicidal activity; details: Table III; 11.2 kg/h; 2 WAT
From the text: (§4) A good grade of top soil is placed in aluminum pans and compacted to a depth of 0.95 to 1.27 cm. from the top of each pan. A predetermined number of seeds or vegetative propagules of each of several plant species are placed on top of the soil in each pan and then pressed down. Herbicidal compositions prepared as in the previous example are applied by admixture with or incorporation in the top layer of soil.
(§5) In this method, the soil required to cover the seeds and propagules is weighed and admixed with a herbicidal composition containing a known amount of the active ingredient (compound of this invention). The pans are then filled with the admixture and leveled. Watering is carried out by permitting the soil in the pans to absorb moisture through apertures in the pan bottoms. The seed and propagule containing pans are placed on a wet sand bench and maintained for approximately two weeks under ordinary conditions of sunlight and watering. At the end of this period, the number of emerged plants of each species is noted and compared to an untreated control.
(§6) The pre-emergent herbicidal activity index used below is based upon average percent control of each species as follows:
(§7) Plant species in the table are identified by the same code letters used in the previous example.

[13] = tested on: Smartweed; assay: Pre-emergent herbicidal activity; details: Table III; 11.2 kg/h; 2 WAT
From the text: as §4, §5, §6, §7

[14] = tested on: Johnsongrass; assay: Pre-emergent herbicidal activity; details: Table III; 11.2 kg/h; 2 WAT
From the text: as §4, §5, §6, §7

[15] = tested on: Downy Brome; assay: Pre-emergent herbicidal activity; details: Table III; 11.2 kg/h; 2 WAT
From the text: as §4, §5, §6, §7

[16] = tested on: Cocklebur; assay: Pre-emergent herbicidal activity; details: Table III; 11.2 kg/h; 2 WAT
From the text: as §4, §5, §6, §7

[17] = tested on: Barnyardgrass; assay: Pre-emergent herbicidal activity; details: Table III; 11.2 kg/h; 2 WAT
From the text: as §4, §5, §6, §7

[18] = tested on: Lambsquarters; assay: Pre-emergent herbicidal activity; details: Table III; 11.2 kg/h; 2 WAT
From the text: as §4, §5, §6, §7

[19] = tested on: Quackgrass; assay: Pre-emergent herbicidal activity; details: Table III; 11.2 kg/h; 2 WAT
From the text: as §4, §5, §6, §7

[20] = tested on: Velvetleaf; assay: Pre-emergent herbicidal activity; details: Table III; 11.2 kg/h; 2 WAT
From the text: as §4, §5, §6, §7

[21] = tested on: Yellow Nutsedge; assay: Pre-emergent herbicidal activity; details: Table III; 11.2 kg/h; 2 WAT
From the text: as §4, §5, §6, §7

[22] = tested on: Canada Thistle; assay: Pre-emergent herbicidal activity; details: Table III; 11.2 kg/h; 2 WAT
From the text: as §4, §5, §6, §7

O=C(CN(CP(=O)(Oc1ccccc1)Oc1ccccc1)SSC1CCCCC1)OCc1ccccc1 [III, Glycine, N-(cyclohexyldithio)-N-[(diphenoxyphosphinyl)methyl]-, phenylmethyl ester]
0 (0- 24% control): post-emergence herbicidal activity index ([9]; 5.6 kg/h) | post-emergence herbicidal activity index ([10]; 5.6 kg/h) | post-emergence herbicidal activity index ([10]; 11.2 kg/h) | post-emergence herbicidal activity index ([11]; 11.2 kg/h)
1 (25-49% control): post-emergence herbicidal activity index ([1]; 5.6 kg/h) | post-emergence herbicidal activity index ([2]; 11.2 kg/h) | post-emergence herbicidal activity index ([3]; 5.6 kg/h) | post-emergence herbicidal activity index ([3]; 11.2 kg/h) | post-emergence herbicidal activity index ([4]; 5.6 kg/h) | post-emergence herbicidal activity index ([4]; 11.2 kg/h) | post-emergence herbicidal activity index ([5]; 5.6 kg/h) | post-emergence herbicidal activity index ([8]; 5.6 kg/h) | post-emergence herbicidal activity index ([9]; 11.2 kg/h) | post-emergence herbicidal activity index ([11]; 5.6 kg/h) | pre-emergent herbicidal activity index [22]
0 (0-24% control): pre-emergent herbicidal activity index [12] | pre-emergent herbicidal activity index [13] | pre-emergent herbicidal activity index [14] | pre-emergent herbicidal activity index [15] | pre-emergent herbicidal activity index [16] | pre-emergent herbicidal activity index [17] | pre-emergent herbicidal activity index [18] | pre-emergent herbicidal activity index [19] | pre-emergent herbicidal activity index [20] | pre-emergent herbicidal activity index [21]
2 (50-74% control): post-emergence herbicidal activity index ([1]; 11.2 kg/h) | post-emergence herbicidal activity index ([2]; 5.6 kg/h) | post-emergence herbicidal activity index ([5]; 11.2 kg/h) | post-emergence herbicidal activity index ([6]; 5.6 kg/h) | post-emergence herbicidal activity index ([6]; 11.2 kg/h) | post-emergence herbicidal activity index ([7]; 5.6 kg/h) | post-emergence herbicidal activity index ([7]; 11.2 kg/h) | post-emergence herbicidal activity index ([8]; 11.2 kg/h)
